For one series, the system named is reserpine ptosis on mice. Description: Antagonism of reserpine ptosis on mice. The following applies: for ED50: Mus musculus, sc; for Therapeutical index: reserpine ptosis, mice, Table II.
A further series deals with pentetrazole spasm. Description: Inhibition of pentetrazole spasm. The following applies: white mice; for ED50: Mus musculus, po, 1 h, orally, one hour before pentetrazole 125 mg/kg intraperitoneally, tonic extensoric spasms of the hind limbs; for Therapeutical index: pentetrazole spasm, Table III. It is filed as in vivo.
The test system of series [1] is nicotine spasm and lethality. The series is described as follows: Inhibition of nicotine spasm and lethality. The following applies: for ED50: po, 1 h, orally, an hour before nicotine 1.4 mg/kg i.v., spasms and lethality within an hour. The series is classed as in vivo. The method, then: The test was carried out according to the method of Stone. [Arch. Int. Pharmacodyn.

For another series, the system named is Hexobarbital narcosis. Description: Hexobarbital narcosis potentiating effect. To be noted: for ED50: Mus musculus, po, 1 h; for Therapeutical index: hexobarbital narcosis, white mice, Table V.
For series [2] the following is noted: Table III (pentetrazole spasm).
Series [3] has as its system tetrabenazine ptosis on mice. To be noted: mouse, in vivo, po.
Method: (§1) Groups consisting of 10-20 mice each were treated perorally, with different doses of the compounds to be tested. The control group was treated only with the corresponding carrier. After 30 minutes tetrabenazine [3-isobutyl-9,10-dimethoxy-1,2,3,4,6,7-hexahydrobenzo[a]-quinolizine-2-one] was administered intraperitoneally at a dosage of 50 mg/kg. The number of animals having closed palpebral fissure was determined in each group after 30, 60, 90 and 120 minutes, resp.
(§2) The mean value of ptosis was calculated in each group, and the deviation from that of the control group (i.e. the inhibition) was expressed in percentage.
In series [4] the test system is tetrabenazine ptosis on mice. The series is described as follows: Antagonism of tetrabenazine ptosis on mice. The following applies: Mus musculus, po.
Method: as §1, §2

Like-named read-outs stand apart in the source and are kept apart here.

Method for Hexobarbital narcosis: Groups consisting of six mice were used for each dose. The test compound was administered orally and one hour after this treatment narcosis was induced by means of a 40 mg/kg i.v. dose of hexobarbital. The control group received carrier instead of the test compound.
The ED50 values thus transformed were calculated.
Method for reserpine ptosis on mice: Groups consisting of 10 mice each were treated with 6 mg/kg of reserpine, subcutaneously, according to the method of Hoffmeister et. al. [Arzneim. […] The animals with ptosis were counted 60 and 120 minutes after the administration of the compounds to be tested. Evaluation was carried out as given under the above test.

As for `CN(C)CCC=C1c2ccccc2CCc2ccccc21` [Amitryptiline, reference compound], in “in vivo”, the LD50 amounted to 225 mg/kg. In the series with reserpine ptosis on mice, it took a dose of 65 mg/kg to reach the 50% effect level (ED50) and the Therapeutical index was determined as 3.5.

For `Nc1nc(N2CCOCC2)nn1C(=S)NCCCOc1cccc(CN2CCCCC2)c1` [Example 1, 1-(5-Amino-3-morpholino-1H-1,2,4-triazol-1-yl)-N-{3-[3-(1-piperidinylmethyl)phenoxyl]propyl}carbothioamide], the ED50 is 295 mg/kg in the series on pentetrazole spasm, 68 mg/kg in series [1], 17 mg/kg in the series with reserpine ptosis on mice and 50 mg/kg with Hexobarbital narcosis. For the same compound, the Therapeutical index was greater than 7 with pentetrazole spasm; greater than 29 in series [1] (nicotine spasm and lethality, Table IV); greater than 117 with reserpine ptosis on mice; greater than 40 with Hexobarbital narcosis. In addition, the LD50 in the series “in vivo” is greater than 2000 mg/kg.

On to `CN(C)c1nc(N)n(C(=S)NCCCOc2cccc(CN3CCCCC3)c2)n1` [Example 2, 1-[5-Amino-3-dimethylamino-1H-1,2,4-triazol-1-yl]-N-{3-[3-(1-piperidinylmethyl)phenoxy]propyl}carbothioamide], for which the ED50 in the series with pentetrazole spasm amounted to 64 mg/kg; in the series with Hexobarbital narcosis, 110 mg/kg. Besides, the Therapeutical index with pentetrazole spasm is listed as greater than 15; with Hexobarbital narcosis it was greater than 9. The LD50 (in series [2]; in the series “in vivo”) was greater than 1000 mg/kg throughout.

The compound `CN1CCN(c2nc(N)n(C(=S)NCCCOc3cccc(CN4CCCCC4)c3)n2)CC1` [Example 3, 1-[5-Amino-3-(4-methylpiperazinyl)-1H-1,2,4-triazol-1-yl]-N-{3-[3-(1-piperidinylmethyl)phenoxy]propyl}carbothioamide] returned a Therapeutical index in series [3] greater than 90. The LD50 in the series “in vivo” was greater than 1000 mg/kg. The compound further returned an ED50 in series [4] of 11 mg/kg.

On to `C=CCN(CC=C)c1nc(N)n(C(=S)NCCCOc2cccc(CN3CCCCC3)c2)n1` [Example 5, 1-[5-Amino-3-diallylamino-1H-1,2,4-triazol-1-yl]-N-{3-[3-(1-piperidinylmethyl)phenoxy]propyl}carbothioamide], for which the LD50 in “in vivo” is greater than 1000 mg/kg. For the same compound, in the series on Hexobarbital narcosis, the ED50 came to 200 mg/kg and the Therapeutical index is listed as greater than 5.

For the compound `COc1ccc(CCNC(=S)n2nc(SC)nc2N)cc1OC` [Example 6, 1-[5-Amino-3-methylthio-1H-1,2,4-triazol-1-yl]-N-[2-(3,4-dimethoxyphenyl)ethyl]carbothioamide], the 50% lethal dose (LD50) in “in vivo” was greater than 2000 mg/kg. For the same compound, in the series with reserpine ptosis on mice, the 50% effective dose (ED50) is 20 mg/kg and the Therapeutical index is given as greater than 100.

In turn, `CCCC(C)(COC(N)=O)COC(N)=O` [Meprobamate, reference compound] came in with an LD50 in the series “in vivo” of 1100 mg/kg. Further, the Therapeutical index in the series with Hexobarbital narcosis stood at 4.1.

With `OC(CCN1CCCCC1)(c1ccccc1)C1CCCCC1` (stereo not shown) [Trihexyphenidyl, reference compound], the ED50 in series [1] was found to be 20 mg/kg.

In turn, `CN1C(=O)OC(C)(C)C1=O` [Trimethadion, reference compound] came in with an LD50 in series [2] of 2050 mg/kg.

Usually LD50 stands for the dose expected to kill half of the subjects tested. The term ED50 denotes the midpoint of the dose-response relation.
